Measured values taken from US11730732B2, “Oral suspension of temozolomide” (Orphelia Pharma, priority 2018, dated 2023).

Experiment: Particle size of temozolomide drug substance entering the composition
Assay type: physicochemical
Excerpt: Characteristically, the composition of temozolomide according to the invention further contains at least one agent controlling the solid state of temozolomide in suspension. Indeed and during the development of the compositions of the invention, the Applicants observed an erratic recrystallisation of temozolomide after reconstitution of some suspensions with water. […] The recrystallisation triggered dose inhomogeneity within the suspensions, with large crystals settling down the bottom of the bottle or container. Furthermore, large crystals tended to clog the syringe for oral administration. This recrystallisation phenomenon was also observed in compositions containing povidone, the excipient used in the hospital-compounded formulations developed by Trissel et al. and Ambados et al.

- particle size d90: < 100 μm
SMILES: Cn1nnc2c(C(N)=O)ncn2c1=O [temozolomide, 3-methyl-4-oxoimidazo[5,1-d][1,2,3,5]tetrazine-8-carboxamide]
